Reference: article PMC7606612, “Identification of HMGA2 inhibitors by AlphaScreen-based ultra-high-throughput screening assays” (Scientific Reports, 2020)
Values joined by “and” are separate entries in the source; they are usually repeats but may differ in a detail not shown here. Equal values may be shown once.

Assays:
BTSC#83 = assay: Growth curves (CellTiter), BTSC#83; assay type: cell-based; settings: up to 200 μM
Experimental: BTSC#83 and BTSC#30p and their culture conditions have been described. For growth curves, suspension cultures were mechanically disaggregated and filtered through 37 µm filters (StemCell Technologies, Vancouver, Canada) in order to obtain bona fide single-cell suspension. […] Cell growth was assayed at the indicated time using the CellTiter Assay System (Promega). The growth conditions of 8505c anaplastic thyroid carcinoma cells and mouse Embryonic Fibroblasts (MEFs) knock-out for HMGA1, HMGA2, and HMGA1/A2 double mutant have been described previously[42],[64]. P values were calculated by using two-way ANOVA followed by Sidak’s multiple comparison test.

HMGA2-DNA interactions = biological target: T1, HMGA2-DNA interactions (Mus musculus, UniProt P52927); assay: AlphaScreen primary uHTS assay of His-tagged HMGA2 binding to biotin-labeled DNA oligomer FL814; design: species or system mammalian
T1 construct: made in house
T1 sequence (P52927 2-108 limits assumed): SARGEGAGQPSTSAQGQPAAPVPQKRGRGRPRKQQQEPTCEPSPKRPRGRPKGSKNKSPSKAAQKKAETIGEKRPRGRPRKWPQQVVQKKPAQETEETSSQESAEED
Experimental: To address these limitations, we established a new assay using AlphaScreen technology. The assay entails binding a biotin-labeled DNA oligomer FL814 and His-tagged HMGA2 to streptavidin-coated donor beads and nickel chelate (Ni-NTA) acceptor beads, respectively (Fig. 1). A series of DNA binding studies were performed to determine the optimal conditions for the AlphaScreen Primary Assay (Fig. S1a–d). […] These two inhibitors are readily available for purchase and served as positive controls for HMGA2-DNA interaction inhibition in the assay.
Using a Labcyte Echo 555 acoustic dispenser 5 nL of DMSO were added to columns 1–4 and 45–48 of a white 1536 well plate, while 5 nL of 2 mM compounds in DMSO were added to columns 5–44. Using a Beckman BioRAPTR FRD bulk reagent dispenser 1 µL of assay buffer (30 mM Citrate, 300 mM NaCl, and 0.005% Tween 20) was added to columns 1 and 2. Next 1 µL of assay buffer containing 125 nM HMGA2 was added to columns 3–48 with a Beckman BioRAPTR FRD bulk reagent dispenser. Finally, 1 µL of assay buffer containing 25 nM FL814 was added to every well of the plate using a Beckman BioRAPTR FRD bulk reagent dispenser. The plate was then centrifuged at 200 × g for 1 min. After 30 min at room temperature, 2 µL of bead buffer (10 mM HEPES, 300 mM NaCl and 0.005% Tween 20) containing 20 µg/mL anti-6xHIS acceptor beads and 20 µg/mL streptavidin donor beads were dispensed into every well using a Beckman BioRAPTR FRD bulk reagent dispenser. The plates were then centrifuged at 200 × g for 1 min. After 1 h at room temperature the plates were read on a Perkin Elmer Envision multimode plate reader in AlphaScreen mode.

Question: `Cc1ccc(C(=O)Nc2ccc(S(=O)(=O)O)c3cc(S(=O)(=O)O)cc(S(=O)(=O)O)c23)cc1NC(=O)c1cccc(NC(=O)Nc2cccc(C(=O)Nc3cc(C(=O)Nc4ccc(S(=O)(=O)O)c5cc(S(=O)(=O)O)cc(S(=O)(=O)O)c45)ccc3C)c2)c1` [suramin] was tested. Which cell growth (BTSC#83) did it give?
Answer: did not significantly affect the cell growth

Question: And the inhibition at 5 µM (HMGA2-DNA interactions; LOPAC1280 screen, final concentration of 5 µM)?
Answer: ≥ 50%

Question: What about the “inhibition of HMGA2-DNA interactions (in words)” value (HMGA2-DNA interactions; confirmed hits that do not bind to DNA) of the same compound?
Answer: strongly inhibit HMGA2-DNA interactions

Question: And the IC50 (HMGA2-DNA interactions; titration, HMGA2-FL814 interactions, Fig. 3a)?
Answer: 2580 nM and 2600 nM
